Experimental data reported in patent US10660967B2, “Curcumin conjugates and methods of use thereof” (priority 2016, dated 2020).
Where two headings read alike, the source gives them in different places.

Experiments:
gastric mucosa = assay: Ulcerogenic liability (ulcer index); format: in vivo, albino mice; conditions: orally, three successive days, 10 mg/kg indomethacin mol equivalent; for Number of animals with ulcer: 6 animals per group; for Ulcer index: sum of the three values
Summary of the method: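 Albino mice were fasted 18 h before dosing, and controls got saline with a few drops of Tween 80. Gastric mucosa was checked under a 10× lens for lesions and erosions. The ulcer index combines percentage incidence divided by 10, mean ulcers per stomach and mean severity.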

[1] = test system: PHA-stimulated splenocytes; assay: Proliferative response of PHA-stimulated splenocytes (MTT assay); format: cell-based; conditions: PHA 5 μg/ml, 72 hr; compounds at 5 μM (method says 10 μM); ratio of O.D. versus vehicle control
Summary of the method: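 Freshly prepared splenocytes (1×10^6 cells/well) were cultured for 72 h at 37° C with compound at 10 μM final, with or without PHA (5 μg/ml). Viability was read by MTT (4 h), with absorbance at 570 nm against 690 nm reference. Stimulation index is the OD ratio of treated versus vehicle cultures.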

[2] = test system: lipopolysaccharide-stimulated peritoneal macrophages; assay: Production of nitric oxide by lipopolysaccharide-stimulated peritoneal macrophages (Greiss reagent); format: cell-based; design: Potency (%): % inhibition of nitric oxide production relative to lipopolysaccharide-stimulated macrophages: concentration or dose not given beside the values; conditions: LPS-stimulated peritoneal macrophages; for Nitric oxide (nitrite) concentration, μM (average ± SD): 24 h, nitrite by Greiss reagent
Summary of the method: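 Macrophages in nitrite-free medium with 0.1% BSA were stimulated with LPS at 0.5–10 ng/ml, some wells also receiving epinephrine, norepinephrine or dopamine at […], for 24 h at 37° C. Nitrite in supernatants was measured with Greiss reagent, 15 min at room temperature, absorbance 532 nm.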

[3] = test system: Salmonella typhi ATCC19430; assay: Antimicrobial MIC, agar dilution; format: cell-based; conditions: Salmonella enterica, read-out: Minimum inhibitory concentration (MIC)
[4] = test system: HCT116 (colon) carcinoma cell line; assay: Anti-tumor properties, MTT; format: cell-based; conditions: Homo sapiens, HCT-116; read-out: IC50 (μM) HCT116 (colon)
Summary of the method: (§1)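 Cells seeded at 10×10^3 per well for 24 h, then exposed to compound in serum-free medium (final up to 100 μM, 0.5% DMSO vehicle) for 72 h in triplicate. Viability by MTT reduction (4 h, SDS solubilised), absorbance 595 nm/ref 620 nm; IC50 from survival curves.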

[5] = test system: HepG2 (hepatocellular) carcinoma cell line; assay: Anti-tumor properties, MTT; format: cell-based; conditions: Homo sapiens, HepG2; read-out: IC50 (μM) HepG2 (liver)
Summary of the method: as §1

[6] = test system: MCF7 (breast) carcinoma cell line; assay: Anti-tumor properties, MTT; format: cell-based; conditions: Homo sapiens, MCF7; read-out: IC50 (μM) MCF7 (breast)
Summary of the method: as §1

[7] = test system: A-549 (lung) carcinoma cell line; assay: Anti-tumor properties, MTT; format: cell-based; conditions: Homo sapiens, A549
[8] = test system: PC3 (prostate) carcinoma cell line; assay: Anti-tumor properties, MTT; format: cell-based; conditions: Homo sapiens
[9] = test system: Staphylococcus aureus ATCC25923; assay: Antimicrobial MIC, agar dilution
[10] = test system: Streptococcus pyogenes ATCC19615; assay: Antimicrobial MIC, agar dilution
[11] = test system: Pseudomonas aeruginosa ATCC27853; assay: Antimicrobial MIC, agar dilution
[12] = test system: Candida albicans (local isolate); assay: Antimicrobial MIC, agar dilution; conditions: Candida albicans, read-out: Minimum inhibitory concentration (MIC)
[13] = ATCC25923, 18 h, read-out: Minimum inhibitory concentration (MIC)
[14] = ATCC25923, read-out: Minimum inhibitory concentration (MIC)
[15] = ATCC19615, 18 h, read-out: Minimum inhibitory concentration (MIC)
[16] = ATCC19615, read-out: Minimum inhibitory concentration (MIC)
[17] = ATCC27853, 18 h, read-out: Minimum inhibitory concentration (MIC)
[18] = ATCC27853, read-out: Minimum inhibitory concentration (MIC)

Compound | % Incidence of ulcer divided by 10 (gastric mucosa) | Average of ulcer number (gastric mucosa) | Average severity of ulcer (gastric mucosa) | Number of animals with ulcer (gastric mucosa) | Ulcer index (gastric mucosa) | Stimulation Index (average ± SD) [1] | Potency (%): % inhibition of nitric oxide production relative to lipopolysaccharide-stimulated macrophages [2] [%] | Nitric oxide (nitrite) concentration, μM (average ± SD) [2] [µM] | MIC ([3]; 18 h) [µg/mL] | MIC [3] [µM] | IC50 [4] [µM] | IC50 [5] [µM] | IC50 [6] [µM] | IC50 [7] [µM] | IC50 [8] [µM] | MIC [9, 13] [µg/mL] | MIC [9, 14] [µM] | MIC [10, 15] [µg/mL] | MIC [10, 16] [µM] | MIC [11, 17] [µg/mL] | other results
COc1cc(/C=C/C(=O)CC(=O)/C=C/c2ccc(OC(=O)[C@H](CCSC)NC(=O)OC(C)(C)C)c(OC)c2)ccc1OC(=O)[C@H](CCSC)NC(=O)OC(C)(C)C [Boc-L-Met-Cur, ((1E,6E)-3,5-dioxohepta-1,6-diene-1,7-diyl)bis(2-methoxy-4,1-phenylene) (2S,2′S)-bis(2-((tert-butoxycarbonyl)amino)-4-(methylthio)butanoate)] | 0 | 0 | 0 | 0/6 | 0 | 1.37 ± 0.10 | 40.84 | 16.16 ± 0.64 | 2 | 2.41 | > 100 | > 100 | 36.3 | > 100 | > 100 | 2 | 2.41 | 2 | 2.41 | 1 | MIC [11, 18]: 1.2 µM; MIC ([12]; 18 h): 1 µg/mL; MIC [12]: 1.2 µM
COc1cc(/C=C/C(=O)CC(=O)/C=C/c2ccc(OC(=O)[C@@H](C)N)c(OC)c2)ccc1OC(=O)[C@@H](C)N.Cl.Cl [HCl-D-Ala-Cur, (2R,2′R)-1,1′-((((1E,6E)-3,5-dioxohepta-1,6-diene-1,7-diyl)bis(2-methoxy-4,1-phenylene))bis(oxy))bis(1-oxopropan-2-aminium) chloride] | 0 | 0 | 0 | 0/6 | 0 | 1.35 ± 0.07 | 41.26 | 16.04 ± 0.46 | 0.25 | 0.428 | 39.2 | 34.3 | 10.4 | 30.9 | 30.7 | 0.125 | 0.214 | 0.25 | 0.428 | 1 | MIC [11, 18]: 1.71 µM; MIC ([12]; 18 h): 0.125 µg/mL; MIC [12]: 0.214 µM
COc1cc(/C=C/C(=O)CC(=O)/C=C/c2ccc(OC(=O)CN)c(OC)c2)ccc1OC(=O)CN.Cl.Cl [HCl-Gly-Cur, 2,2′-((((1E,6E)-3,5-dioxohepta-1,6-diene-1,7-diyl)bis(2-methoxy-4,1-phenylene))bis(oxy))bis(2-oxoethan-1-aminium) chloride] | 0 | 0 | 0 | 0/6 | 0 | 0.99 ± 0.16 | 49.98 | 13.66 ± 1.05 | 0.25 | 0.45 | 36.2 | 39.8 | 9.15 | 18.9 | 38.7 | 0.5 | 0.9 | 0.25 | 0.45 | 1 | MIC [11, 18]: 1.8 µM; MIC ([12]; 18 h): 1 µg/mL; MIC [12]: 1.8 µM
COc1cc(/C=C/C(=O)CC(=O)/C=C/c2ccc(OC(=O)[C@@H](N)CCSC)c(OC)c2)ccc1OC(=O)[C@@H](N)CCSC.Cl.Cl [HCl-L-Met-Cur, (2S,2′S)-1,1′-((((1E,6E)-3,5-dioxohepta-1,6-diene-1,7-diyl)bis(2-methoxy-4,1-phenylene))bis(oxy))bis(4-(methylthio)-1-oxobutan-2-aminium) chloride] | 0 | 0 | 0 | 0/6 | 0 | 1.49 ± 0.06 | 37.94 | 16.95 ± 0.40 | 0.125 | 0.178 | 61.9 | 39.8 | 11.3 | 32.8 | 42.6 | 0.25 | 0.355 | 0.5 | 0.711 | 0.5 | MIC [11, 18]: 0.711 µM; MIC ([12]; 18 h): 0.5 µg/mL; MIC [12]: 0.711 µM
COc1cc(/C=C/C(=O)CC(=O)/C=C/c2ccc(OC(=O)CCN)c(OC)c2)ccc1OC(=O)CCN.Cl.Cl [HCl-β-Ala-Cur, 3,3′-((((1E,6E)-3,5-dioxohepta-1,6-diene-1,7-diyl)bis(2-methoxy-4,1-phenylene))bis(oxy))bis(3-oxopropan-1-aminium) chloride] | 0 | 0 | 0 | 0/6 | 0 | 1.39 ± 0.98 | 41.68 | 15.93 ± 0.29 | 1 | 1.71 | 42.3 | 36.4 | 9.36 | 32.4 | 30.2 | 1 | 1.71 | 1 | 1.71 | 1 | MIC [11, 18]: 1.71 µM; MIC ([12]; 18 h): 0.5 µg/mL; MIC [12]: 0.857 µM
COc1cc(/C=C/C(=O)CC(=O)/C=C/c2ccc(OC(=O)[C@@H](C)NC(=O)OCc3ccccc3)c(OC)c2)ccc1OC(=O)[C@@H](C)NC(=O)OCc1ccccc1 [Z-D-Ala-Cur, ((1E,6E)-3,5-dioxohepta-1,6-diene-1,7-diyl)bis(2-methoxy-4,1-phenylene) (2R,2′R)-bis(2-(((benzyloxy)carbonyl)amino)propanoate)] | 0 | 0 | 0 | 0/6 | 0 | 1.59 ± 0.14 | 35.45 | 17.63 ± 0.92 | 0.5 | 0.642 | > 100 | > 100 | 73 | > 100 | > 100 | 0.5 | 0.642 | 0.125 | 0.161 | 1 | MIC [11, 18]: 1.28 µM; MIC ([12]; 18 h): 0.5 µg/mL; MIC [12]: 0.642 µM
